Laboratory results as given in patent publication US20140344996A1, “METHODS AND MEANS TO PRODUCE ABIOTIC STRESS TOLERANT PLANTS” (VIB VZW, priority 2011, published 2014).

Legend:
Assay type in all cases: in vivo, Arabidopsis thaliana
[1] = test system: Arabidopsis wild-type plants; test: Growth of the third leaf under mild osmotic stress (mannitol); conditions: wild-type line, transfer at 9DAS to medium with 25 mM Mannitol
Experimental: It was opted to study growing plants upon exposure to mild stress, not threatening plant survival but only reducing plant growth by an average of 50%. For loss-of-function analysis, the double erf5/erf6 T-DNA insertion mutant and a wild-type line were grown on control medium until 9DAS and then transferred to growth medium containing 25 mM of the osmoticum Mannitol. Subsequently, upon transfer, growth of the third leaf was measured.
Seedlings were grown in vitro on half-strength Murashige and Skoog medium (Murashige and Skoog 1962) containing 1% sucrose and 6.5 g/L agar at 21° C. under a 16-hour day (110 μmol m^−2 s^−1) and 8-hour night regimen. The growth medium was overlaid with nylon mesh (Prosep, Zaventem, Belgium) of 20 μm pore size to facilitate transfer to induction medium. For expression analysis and growth experiments, 64 resp. 32 seeds were equally distributed on a 15-cm diameter petri dish. […]
Growth analysis was performed on the third true leaf harvested at different time points after transfer to Dex. […] Photographs of leaves and drawings were used to measure leaf area and cell size, respectively, using ImageJ v1.37o (NIH; on the World Wide Web at //rsb.info.nih.gov/ij/), and from these cell numbers were calculated by dividing leaf area with cell area.

Arabidopsis seedlings [2] = test: Leaf growth of Arabidopsis seedlings in vitro after transfer to Dex medium; conditions: 5 μM Dexamethasone in ½ MS medium, transfer at 9DAS
Experimental: Seedlings were grown in vitro on half-strength Murashige and Skoog medium (Murashige and Skoog 1962) containing 1% sucrose and 6.5 g/L agar at 21° C. under a 16-hour day (110 μmol m^−2 s^−1) and 8-hour night regimen. The growth medium was overlaid with nylon mesh (Prosep, Zaventem, Belgium) of 20 μm pore size to facilitate transfer to induction medium. For expression analysis and growth experiments, 64 resp. 32 seeds were equally distributed on a 15-cm diameter petri dish. […] At 9DAS, when the third leaf is fully proliferating, the mesh with seedlings was transferred to plates containing ½ MS medium with 5 μM Dexamethasone (Dex). For expression analysis and growth experiments, all seedlings were transferred to Dex, including the control lines, to account for the possible effects of Dex on growth or gene expression. […] Here, the non-treated plants will serve as a control for the Dex-induced plants of the same line. […] Growth analysis was performed on the third true leaf harvested at different time points after transfer to Dex. After clearing with 70% ethanol, leaves were mounted in lactic acid on microscopic slides. […] Photographs of leaves and drawings were used to measure leaf area and cell size, respectively, using ImageJ v1.37o (NIH; on the World Wide Web at //rsb.info.nih.gov/ij/), and from these cell numbers were calculated by dividing leaf area with cell area.

Arabidopsis seedlings [3] = test: Gene expression in the third leaf after transfer to Dex medium; conditions: 5 μM Dexamethasone in ½ MS medium, transfer at 9DAS
Experimental: At 9DAS, when the third leaf is fully proliferating, the mesh with seedlings was transferred to plates containing ½ MS medium with 5 μM Dexamethasone (Dex). For expression analysis and growth experiments, all seedlings were transferred to Dex, including the control lines, to account for the possible effects of Dex on growth or gene expression. […] Here, the non-treated plants will serve as a control for the Dex-induced plants of the same line. […] Leaf 3 was harvested from plants at 1, 2, 4 and 24 hours after transfer. Samples were obtained from three independent experiments and from multiple plates within the experiment. Whole seedlings were harvested rapidly in an excess of RNAlater solution (Ambion) and, after overnight storage at 4° C., dissected under a binocular microscope on a cooling plate with precision microscissors. Dissected leaves were transferred to a new tube, frozen in liquid nitrogen, and ground with a Retsch machine and 3-mm metal balls. RNA was extracted with TriZol (Invitrogen) and further purified with the RNEASY® Mini Kit (Qiagen). DNA digestion was done on-column with Rnase-free DNase I (Roche). […] Melting curves were analyzed to check primer specificity. […] Ct refers to the number of cycles at which SYBR Green fluorescence reaches an arbitrary value during the exponential phase of the cDNA amplification.

| SMILES | growth of the third leaf [1] | effect on growth (Arabidopsis seedlings [2]) | effect on gene expression (Arabidopsis seedlings [3]) |
| --- | --- | --- | --- |
| OC[C@@H](O)[C@@H](O)[C@H](O)[C@H](O)CO [Mannitol] | expected growth reduction | – | – |
| C[C@@H]1C[C@H]2[C@@H]3CCC4=CC(=O)C=C[C@]4(C)[C@@]3(F)[C@@H](O)C[C@]2(C)[C@@]1(O)C(=O)CO [Dex, Dexamethasone] | – | no effect | no effect |
